Data from patent US12408667B2, “Herbicidal mixtures comprising isoxaflutole, pyroxasulfone and an imidazolinone herbicide; and their use in soybean and cotton cultures” (BASF SE, priority 2018, dated 2025).

Test system: GALAP (Galium aparine)
Assay: greenhouse experiment, herbicidal action, evaluated on a scale from 0 to 100
Format: in vivo
Settings: pre-emergence greenhouse
Excerpt: Synergism can be described as an interaction where the combined effect of two or more compounds is greater than the sum of the individual effects of each of the compounds. The presence of a synergistic effect in terms of percent control, between two mixing partners (X and Y) can be calculated using the Colby equation (Colby, S. R., 1967, Calculating Synergistic and Antagonistic Responses in Herbicide Combinations, Weeds, 15, 21-22): E=X+Y−XY/100
When the observed combined control effect is greater than the expected (calculated) combined control effect (E), then the combined effect is synergistic.
The culture containers used were plastic flowerpots containing loamy sand with approximately 3.0% of humus as the substrate. The seeds of the test plants were sown separately for each species. For pre-emergence treatment, the active ingredients, which had been suspended or emulsified in water, were applied directly after sowing by means of finely distributing nozzles. The containers were irrigated gently to promote germination and growth and subsequently covered with transparent plastic hoods until the plants had rooted. This cover caused uniform germination of the test plants, unless this had been impaired by the active ingredients. […] During this time, the plants were tended, and their response to the individual treatments was evaluated. […]

For `CS(=O)(=O)c1cc(C(F)(F)F)ccc1C(=O)c1cnoc1C1CC1` [Isoxaflutole, isoxaflutole], the “Herbicidal action against GALAP, Found” value (Isoxaflutole 12.5 g/ha alone, 20 days, scale 0 to 100) was 0 and the “Herbicidal action against GALAP, Found” value (Isoxaflutole 25 g/ha alone, test period 20 days, scale 0 to 100 (100 = no emergence or complete destruction)) was 0.
